The subject of the experiment is Plasmopara viticola. In words: Action against Plasmopara viticola on vines (preventive leaf spray, Colby evaluation). The experiment is classed as in vivo. As to conditions: for O Observed action: evaluation after 7 days. The source says: Fungicides have a synergistic effect whenever the fungicidal action of the active ingredient combination is greater than the sum of the actions of the active ingredients when applied individually.
The action E to be expected for a given active ingredient combination, for example of two fungicides, obeys the so-called COLBY formula and can be calculated as follows (COLBY, L. R. “Calculating synergistic and antagonistic responses of herbicide combinations”. Weeds 15, pages 20-22, 1967) (LIMPEL et al., […] “Weeds control by . . . certain combinations”. Proc. NEWCL, Vol. 16, pp. 48-53):
(mg a.i./liter=milligrams of active ingredient per liter or a multiple thereof) X=% action by fungicide I at p mg a.i./liter
Y=% action by fungicide II at q mg a.i./liter
E=the expected action of fungicides I+II at a rate of application of p+q mg a.i./liter (additive action), then according to Colby: [formula]
If the action (O) actually observed is greater than the expected action, then the action of the combination is superadditive, i.e. there is a synergistic effect.
1) Action Against Plasmopara viticola on Vines
Small vine plants of the variety “Gutedel” are each grown in a plant-pot (diameter=6 cm) under greenhouse conditions and are sprayed in the two-leaf stage with an active ingredient mixture prepared from an emulsifiable concentrate. The following concentrations of active ingredient are each applied to four plants: […]
metalaxyl racemate: 2 mg and 6 mg a.i./liter;
R-metalaxyl (100%): 0.06 mg and 0.6 mg a.i./liter; mancozeb: 2 mg and 6 mg a.i./liter.
These dilutions are prepared in demineralised water immediately before the leaves are sprayed. In order to eliminate the effect of the gas phase of the metalaxyl in the vicinity, all the plants are separated from one another laterally by means of transparent plastics films and are kept in the dark for one day at 20-22° C. and about 100% relative humidity.
The entire surface of the leaves of the plants is then uniformly sprayed to drip point with a freshly prepared sporangia suspension (120 000/ml) of a strain of Plasmopara viticola that is sensitive to metalaxyl. The plants are then kept at 20-22° C. and about 100% relative humidity for 7 days under artificial daylight of 16 hours' duration. Evaluation of the infestation is then carried out. The Tables show in each case the average of four parallel sprayings. The expected action in the case of mixtures is calculated according to COLBY.
Level of action of racemic metalaxyl and R-metalaxyl in admixture with residual component mancozeb

Setting [1] is: single active ingredient 2 mg a.i./l, vines Gutedel, infection 1 day after spraying, average of four.
Setting [2] is: single active ingredient 6 mg a.i./l, vines.

Three molecules from patent US6514959B2 (priority 1994, dated 2003) can be followed below.

With mancozeb, the “O Observed action” value is, setting by setting: under setting [1], 0%; under setting [2], 20%.
Take `COCC(=O)N(c1c(C)cccc1C)[C@H](C)C(=O)OC` (single isomer, unassigned) [R-enantiomer of metalaxyl, R-metalaxyl]: where the note is “in admixture with 2 mg or 6 mg of mancozeb, 0.06 mg R-metalaxyl corresponds to 2 mg racemic metalaxyl”, the “improvement of action when the R-enantiomer is used instead of racemic metalaxyl” value is on record as “about 30 fold”. Also, the “O Observed action” value runs as follows: (single active ingredient 0.06 mg a.i./l, vines) 12%; (single active ingredient 0.6 mg a.i./l, vines) 18%.
On to `COCC(=O)N(c1c(C)cccc1C)C(C)C(=O)OC` (stereo not shown) [Metalaxyl, metalaxyl], for which the “O Observed action” value is, setting by setting: under setting [1], 12%; under setting [2], 24%.
